Measurements published in PMC6416464 (Drug Metabolism Letters, 2018).
Where two headings read alike, the source gives them in different places.

Assays:
[1] = Metabolic stability, incubation with human liver cytosol; type: in vitro ADME; conditions: 1 µM test compound, 1 mg/mL protein
[2] = molecular target: CYP2C19 (Homo sapiens, UniProt P33261); assay: CYP inhibition in human liver microsomes, CYP2C19; conditions: inhibitor 10 µM; HLM; NI: No Inhibitin
[3] = molecular target: rCYP2D6 (Homo sapiens, UniProt P10635); assay: Metabolic stability / reaction phenotyping with recombinant human CYP2D6; conditions: 1 µM test compound; 100 pmol/mL; 30 min
[4] = molecular target: T1, CYP1A2 (Homo sapiens, UniProt P05177); assay: CYP inhibition in human liver microsomes, CYP1A2
T1 sequence (P05177 1-516): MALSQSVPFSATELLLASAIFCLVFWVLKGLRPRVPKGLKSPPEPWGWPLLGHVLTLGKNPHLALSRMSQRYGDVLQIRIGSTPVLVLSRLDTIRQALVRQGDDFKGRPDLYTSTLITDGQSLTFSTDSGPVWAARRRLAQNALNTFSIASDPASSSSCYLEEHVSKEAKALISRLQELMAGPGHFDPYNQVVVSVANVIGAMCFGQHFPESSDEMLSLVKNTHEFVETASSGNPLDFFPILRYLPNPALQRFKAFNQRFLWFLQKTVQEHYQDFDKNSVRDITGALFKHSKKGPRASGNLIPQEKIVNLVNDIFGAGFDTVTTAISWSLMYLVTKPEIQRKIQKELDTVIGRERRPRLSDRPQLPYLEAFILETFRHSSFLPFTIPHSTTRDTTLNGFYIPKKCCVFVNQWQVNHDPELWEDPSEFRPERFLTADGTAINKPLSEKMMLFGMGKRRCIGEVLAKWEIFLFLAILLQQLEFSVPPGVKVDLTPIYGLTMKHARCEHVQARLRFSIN

[5] = molecular target: rCYP2C19 (Homo sapiens, UniProt P33261); assay: Metabolic stability / reaction phenotyping with recombinant human CYP2C19; conditions: for % Metabolized at 30 min Incubation with Human Liver Fractions/Enzymes rCYP2C19: 1 µM test compound, 100 pmol/mL
[6] = molecular target: T2, CYP3A4 (Homo sapiens, UniProt P08684); conditions: microsomes
[7] = molecular target: rCYP3A4 (Homo sapiens, UniProt P08684); conditions: for % Metabolized at 30 min Incubation with Human Liver Fractions/Enzymes rCYP3A4: 1 µM test compound, 100 pmol/mL; for rCYP Clint, CYP3A4 / % Contribution of CYP Enzymes (fmCYP) in Metabolism, CYP3A4: recombinant enzyme
[8] = molecular target: rCYP2C9 (Homo sapiens, UniProt P11712); assay: Metabolic stability / reaction phenotyping with recombinant human CYP2C9; conditions: for % Metabolized at 30 min Incubation with Human Liver Fractions/Enzymes rCYP2C9: 1 µM test compound, 100 pmol/mL
[9] = molecular target: CYP2C9 (Homo sapiens, UniProt P11712); assay: CYP inhibition in human liver microsomes, CYP2C9; conditions: HLM; for % Inhibition of Control Activity CYP2C9: NI: No Inhibitin
[10] = molecular target: T3, rCYP2C8 (Homo sapiens, UniProt P10632); assay: Metabolic stability / reaction phenotyping with recombinant human CYP2C8; conditions: 1 µM test compound; 100 pmol/mL; 30 min
T3 sequence (P10632 1-490): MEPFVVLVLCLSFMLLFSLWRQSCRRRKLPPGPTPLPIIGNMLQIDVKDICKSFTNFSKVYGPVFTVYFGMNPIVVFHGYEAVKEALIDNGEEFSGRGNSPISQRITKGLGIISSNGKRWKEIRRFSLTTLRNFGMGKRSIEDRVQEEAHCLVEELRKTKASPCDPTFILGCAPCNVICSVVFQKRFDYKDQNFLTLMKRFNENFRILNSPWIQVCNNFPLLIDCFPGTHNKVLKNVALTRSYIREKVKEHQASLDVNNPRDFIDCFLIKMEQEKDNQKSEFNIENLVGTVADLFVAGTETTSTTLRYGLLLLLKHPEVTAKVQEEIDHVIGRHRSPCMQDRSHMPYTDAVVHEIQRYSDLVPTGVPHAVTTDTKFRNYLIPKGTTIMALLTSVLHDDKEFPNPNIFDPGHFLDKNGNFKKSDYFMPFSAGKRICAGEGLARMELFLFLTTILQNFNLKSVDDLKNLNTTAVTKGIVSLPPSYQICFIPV

[11] = Metabolic stability, incubation with human liver microsomes; conditions: 1 µM test compound, 0.5 mg/mL protein
[12] = molecular target: T4, CYP2C8 (Homo sapiens, UniProt P10632); assay: CYP inhibition in human liver microsomes, CYP2C8; conditions: for % Inhibition of Control Activity CYP2C8: NI: No Inhibitin
T4 sequence (P10632 1-490): T3 sequence (P10632 1-490)

[13] = molecular target: T5, rCYP1A2 (Homo sapiens, UniProt P05177); assay: Metabolic stability / reaction phenotyping with recombinant human CYP1A2; conditions: for % Metabolized at 30 min Incubation with Human Liver Fractions/Enzymes rCYP1A2: 1 µM test compound, 100 pmol/mL
T5 sequence (P05177 1-516): T1 sequence (P05177 1-516)

[14] = cited from earlier work
[15] = molecular target: T2, CYP3A4; assay: in vitro; conditions: microsomes, pH 7.4, % Inhibition of Control Activity CYP3A4 (substrate, testosterone)
[16] = molecular target: T2, CYP3A4; assay: in vitro; conditions: microsomes, pH 7.4
[17] = human, recombinant human CYP2C19, 1 µM, pH 7.4
[18] = human, human liver microsomes, pH 7.4, probe paclitaxel

rCYP2C19, sequence (P33261 whole entry): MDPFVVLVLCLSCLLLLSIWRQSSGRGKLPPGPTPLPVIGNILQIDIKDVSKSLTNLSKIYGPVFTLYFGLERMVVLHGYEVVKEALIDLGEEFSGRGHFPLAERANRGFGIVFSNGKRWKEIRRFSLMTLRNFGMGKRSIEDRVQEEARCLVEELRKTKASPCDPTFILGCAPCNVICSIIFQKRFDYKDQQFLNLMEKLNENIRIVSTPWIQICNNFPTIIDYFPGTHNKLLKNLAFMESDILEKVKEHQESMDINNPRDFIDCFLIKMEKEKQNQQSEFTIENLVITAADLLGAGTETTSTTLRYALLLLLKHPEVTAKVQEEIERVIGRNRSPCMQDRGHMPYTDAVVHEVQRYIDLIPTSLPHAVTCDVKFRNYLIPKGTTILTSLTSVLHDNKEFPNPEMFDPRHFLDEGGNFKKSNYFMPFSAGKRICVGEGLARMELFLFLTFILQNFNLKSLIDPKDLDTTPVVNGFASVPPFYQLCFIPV
CYP2C9, sequence (P11712 whole entry): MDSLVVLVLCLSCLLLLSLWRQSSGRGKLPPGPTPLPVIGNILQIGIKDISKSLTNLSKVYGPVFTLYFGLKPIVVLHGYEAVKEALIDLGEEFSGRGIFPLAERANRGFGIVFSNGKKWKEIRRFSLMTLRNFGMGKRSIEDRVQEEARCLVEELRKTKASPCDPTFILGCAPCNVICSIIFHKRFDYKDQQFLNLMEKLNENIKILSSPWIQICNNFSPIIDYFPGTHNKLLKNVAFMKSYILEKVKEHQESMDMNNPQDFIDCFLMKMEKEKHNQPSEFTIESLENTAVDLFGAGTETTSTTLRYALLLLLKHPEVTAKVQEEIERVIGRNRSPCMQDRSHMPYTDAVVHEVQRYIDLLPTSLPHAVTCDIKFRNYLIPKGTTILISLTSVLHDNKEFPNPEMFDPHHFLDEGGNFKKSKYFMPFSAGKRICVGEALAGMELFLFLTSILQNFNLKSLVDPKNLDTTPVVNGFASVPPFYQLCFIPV
rCYP2C9, sequence (P11712 whole entry): as above
rCYP3A4, sequence (P08684 whole entry): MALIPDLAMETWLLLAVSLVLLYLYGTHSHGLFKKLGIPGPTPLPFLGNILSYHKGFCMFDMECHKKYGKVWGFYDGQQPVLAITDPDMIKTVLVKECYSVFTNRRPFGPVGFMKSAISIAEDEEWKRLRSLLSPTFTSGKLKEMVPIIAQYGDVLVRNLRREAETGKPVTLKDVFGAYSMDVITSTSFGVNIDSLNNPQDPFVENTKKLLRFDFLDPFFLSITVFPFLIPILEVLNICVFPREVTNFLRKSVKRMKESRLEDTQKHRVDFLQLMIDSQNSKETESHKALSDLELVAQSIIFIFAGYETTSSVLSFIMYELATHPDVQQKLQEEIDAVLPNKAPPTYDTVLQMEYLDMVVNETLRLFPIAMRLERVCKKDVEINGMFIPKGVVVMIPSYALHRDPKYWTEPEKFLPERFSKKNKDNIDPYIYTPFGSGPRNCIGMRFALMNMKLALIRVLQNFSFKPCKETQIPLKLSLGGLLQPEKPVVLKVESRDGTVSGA
T2 sequence (P08684 2-503): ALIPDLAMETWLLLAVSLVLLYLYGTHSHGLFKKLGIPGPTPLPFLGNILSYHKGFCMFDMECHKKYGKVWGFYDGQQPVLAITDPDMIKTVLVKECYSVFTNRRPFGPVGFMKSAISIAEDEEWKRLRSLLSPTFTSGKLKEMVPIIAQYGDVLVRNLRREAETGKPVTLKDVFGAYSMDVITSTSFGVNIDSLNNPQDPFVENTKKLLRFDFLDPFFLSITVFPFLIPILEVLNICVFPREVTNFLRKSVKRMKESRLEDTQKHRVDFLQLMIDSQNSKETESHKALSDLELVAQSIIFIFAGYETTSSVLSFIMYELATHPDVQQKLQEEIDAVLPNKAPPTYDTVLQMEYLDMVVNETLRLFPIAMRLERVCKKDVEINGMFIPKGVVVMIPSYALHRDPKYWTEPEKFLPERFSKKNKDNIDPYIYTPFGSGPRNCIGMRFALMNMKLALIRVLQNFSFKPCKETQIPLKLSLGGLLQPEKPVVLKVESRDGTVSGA
rCYP2D6, sequence (P10635 whole entry): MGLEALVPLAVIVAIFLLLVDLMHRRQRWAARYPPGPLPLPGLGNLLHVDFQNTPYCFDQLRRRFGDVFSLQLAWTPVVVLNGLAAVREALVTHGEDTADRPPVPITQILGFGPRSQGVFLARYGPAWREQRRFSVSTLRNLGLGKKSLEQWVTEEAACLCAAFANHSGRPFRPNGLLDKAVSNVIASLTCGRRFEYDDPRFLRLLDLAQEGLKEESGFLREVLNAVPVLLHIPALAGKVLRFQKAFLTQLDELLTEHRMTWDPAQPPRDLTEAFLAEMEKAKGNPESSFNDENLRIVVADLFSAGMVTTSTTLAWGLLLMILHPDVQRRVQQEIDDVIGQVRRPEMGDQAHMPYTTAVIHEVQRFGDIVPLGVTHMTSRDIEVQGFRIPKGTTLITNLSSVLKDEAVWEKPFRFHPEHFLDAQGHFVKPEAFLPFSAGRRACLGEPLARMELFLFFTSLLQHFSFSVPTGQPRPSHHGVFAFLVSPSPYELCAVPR
CYP2C19, sequence (P33261 whole entry): as the sequence (P33261 whole entry) above

## triclabendazole sulfone
[1]
  % Metabolized at 30 min Incubation with Human Liver Fractions/Enzymes Cytosol: 0.00%
[2]
  % Inhibition of Control Activity CYP2C19: 5.05%
[3]
  % Metabolized at 30 min Incubation with Human Liver Fractions/Enzymes rCYP2D6: 0.00%
[4]; inhibitor 10 µM, HLM, NI: No Inhibitin
  % Inhibition of Control Activity CYP1A2: 8.60%
[5]
  Predicted Microsomal Clint, CYP2C19: 0.228 µL/min/mg Protein
  % Metabolized at 30 min Incubation with Human Liver Fractions/Enzymes rCYP2C19: 3.53%
[5]; human, recombinant enzyme
  rCYP Clint, CYP2C19: 0.012 µL/min/pmol
[5]; recombinant enzyme
  % Contribution of CYP Enzymes (fmCYP) in Metabolism, CYP2C19: 0.17%
[6]; 2 µM
  % Inhibition of Control Activity CYP3A4 (substrate, testosterone): 4.09%
[6]; 10 µM
  % Inhibition of Control Activity CYP3A4 (substrate, testosterone): 8.63%
[7]
  Predicted Microsomal Clint, CYP3A4: 3.591 µL/min/mg Protein
  % Metabolized at 30 min Incubation with Human Liver Fractions/Enzymes rCYP3A4: 9.25%
  % Contribution of CYP Enzymes (fmCYP) in Metabolism, CYP3A4: 2.67%
[7]; human
  rCYP Clint, CYP3A4: 0.032 µL/min/pmol
[8]
  Predicted Microsomal Clint, CYP2C9: 130.447 µL/min/mg Protein
  % Metabolized at 30 min Incubation with Human Liver Fractions/Enzymes rCYP2C9: 98.31%
[8]; human, recombinant enzyme
  rCYP Clint, CYP2C9: 1.359 µL/min/pmol
[8]; recombinant enzyme
  % Contribution of CYP Enzymes (fmCYP) in Metabolism, CYP2C9: 97.11%
[9]; inhibitor 2 µM
  % Inhibition of Control Activity CYP2C9: 78.78%
[9]; inhibitor 10 µM
  % Inhibition of Control Activity CYP2C9: 96.15%
[9]; read-out: IC50 CYP 2C9
  IC50: 0.69 µM
[10]
  % Metabolized at 30 min Incubation with Human Liver Fractions/Enzymes rCYP2C8: 0.00%
[11]
  % Metabolized at 30 min Incubation with Human Liver Fractions/Enzymes HLM: 52.20%
[12]; inhibitor 2 µM, HLM
  % Inhibition of Control Activity CYP2C8: 65.36%
[12]; inhibitor 10 µM, HLM
  % Inhibition of Control Activity CYP2C8: 92.88%
[12]; read-out: IC50 CYP 2C8, HLM
  IC50: 1.05 µM
[13]
  Predicted Microsomal Clint, CYP1A2: 0.069 µL/min/mg Protein
  % Metabolized at 30 min Incubation with Human Liver Fractions/Enzymes rCYP1A2: 0.40%
[13]; human, recombinant enzyme
  rCYP Clint, CYP1A2: 0.001 µL/min/pmol
[13]; recombinant enzyme
  % Contribution of CYP Enzymes (fmCYP) in Metabolism, CYP1A2: 0.05%
[14]; human patients at therapeutic doses of triclabendazole
  Cmax: 2290 nM
[14]; humans
  half-life: 11 to 12 h

## CNC(=O)O/N=C/C(C)(C)[S+](C)[O-] (centres unmarked) [Aldicarb sulfoxide, aldicarb sulfoxide]
[1]
  % Metabolized at 30 min Incubation with Human Liver Fractions/Enzymes Cytosol: 0.00%
[3]
  % Metabolized at 30 min Incubation with Human Liver Fractions/Enzymes rCYP2D6: 0.00%
[5]
  % Metabolized at 30 min Incubation with Human Liver Fractions/Enzymes rCYP2C19: 0.85%
[5]; [17]
  % Contribution of CYP Enzymes (fmCYP) in Metabolism, CYP2C19: 2.34%
  Predicted Microsomal Clint, CYP2C19: 0.054 µL/min/mg Protein
  rCYP Clint, CYP2C19: 0.003 µL/min/pmol
[7]
  % Metabolized at 30 min Incubation with Human Liver Fractions/Enzymes rCYP3A4: 5.91%
[7]; human, pH 7.4
  Predicted Microsomal Clint, CYP3A4: 2.254 µL/min/mg Protein
  % Contribution of CYP Enzymes (fmCYP) in Metabolism, CYP3A4: 97.66%
  rCYP Clint, CYP3A4: 0.020 µL/min/pmol
[15]
  inhibition at 2 µM: < 0%
  inhibition at 10 µM: < 0%
[8]
  % Metabolized at 30 min Incubation with Human Liver Fractions/Enzymes rCYP2C9: 0.00%
[16]
  inhibition at 2 µM: < 0%
  inhibition at 10 µM: < 0%
[10]
  % Metabolized at 30 min Incubation with Human Liver Fractions/Enzymes rCYP2C8: 0.00%
[11]
  % Metabolized at 30 min Incubation with Human Liver Fractions/Enzymes HLM: 21.18%
[12]; [18]
  inhibition at 2 µM: < 0%
  inhibition at 10 µM: 2.32%
[13]
  % Metabolized at 30 min Incubation with Human Liver Fractions/Enzymes rCYP1A2: 0.00%

## O=c1cc(-c2ccccc2)oc2c1ccc1ccccc12 [α-Nepthoflavone, α-naphthoflavone, reference compound]
[4]; human, human liver microsomes, pH 7.4, probe phenacetin, Percent inhibition, positive control inhibitor, CYP1A2, concentration tested 20 nM
  inhibition at 20 nM: 62.4%
